From article PMC5774841, “High-level production and purification in a functional state of an extrasynaptic gamma-aminobutyric acid type A receptor containing α4β3δ subunits” (PLoS ONE, 2018)
Like-named read-outs stand apart in the source and are kept apart here.

How the values were obtained:
α4β3N–Flag–δ GABAAR = biological target: T1, α4β3N–Flag–δ GABAAR (Homo sapiens, UniProt O14764+P28472+P48169); test: Whole-cell patch-clamp of GABA-elicited currents in the induced α4β3N-Flag-δ cell line; assay type: cell-based; conditions: for enhancement of maximum GABA elicited currents: drug 10 μM co-applied for 4 s, notch protocol
T1 construct: expressed in transfected cells
T1 sequence (P48169 36-554): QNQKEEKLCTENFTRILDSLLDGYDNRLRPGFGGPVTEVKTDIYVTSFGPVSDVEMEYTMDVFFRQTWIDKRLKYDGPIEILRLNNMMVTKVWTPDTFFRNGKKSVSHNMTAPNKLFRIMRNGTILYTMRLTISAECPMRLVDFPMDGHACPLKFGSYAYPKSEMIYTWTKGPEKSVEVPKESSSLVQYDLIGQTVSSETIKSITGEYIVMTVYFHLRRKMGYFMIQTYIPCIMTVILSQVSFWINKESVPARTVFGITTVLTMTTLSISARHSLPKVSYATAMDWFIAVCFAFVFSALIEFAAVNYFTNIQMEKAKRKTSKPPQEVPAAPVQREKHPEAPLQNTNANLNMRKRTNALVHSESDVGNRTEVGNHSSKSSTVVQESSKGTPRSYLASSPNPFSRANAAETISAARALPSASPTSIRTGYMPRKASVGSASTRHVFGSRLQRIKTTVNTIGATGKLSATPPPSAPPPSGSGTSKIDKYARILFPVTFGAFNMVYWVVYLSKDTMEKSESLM
T1 sequence (P28472 26-473 isoform P28472-2 limits assumed): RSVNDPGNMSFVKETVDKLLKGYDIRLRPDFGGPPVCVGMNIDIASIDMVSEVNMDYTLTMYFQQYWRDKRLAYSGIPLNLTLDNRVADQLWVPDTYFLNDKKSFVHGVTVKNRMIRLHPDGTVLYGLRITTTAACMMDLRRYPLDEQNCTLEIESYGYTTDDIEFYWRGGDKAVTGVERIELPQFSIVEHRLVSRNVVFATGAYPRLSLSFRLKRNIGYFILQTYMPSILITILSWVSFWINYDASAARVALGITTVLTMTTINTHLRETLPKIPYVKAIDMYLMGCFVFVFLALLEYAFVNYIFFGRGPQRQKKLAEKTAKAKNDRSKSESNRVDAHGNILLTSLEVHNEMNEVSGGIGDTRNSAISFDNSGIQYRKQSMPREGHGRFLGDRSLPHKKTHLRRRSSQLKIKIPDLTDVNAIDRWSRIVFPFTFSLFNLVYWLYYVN
T1 sequence (O14764 25-452): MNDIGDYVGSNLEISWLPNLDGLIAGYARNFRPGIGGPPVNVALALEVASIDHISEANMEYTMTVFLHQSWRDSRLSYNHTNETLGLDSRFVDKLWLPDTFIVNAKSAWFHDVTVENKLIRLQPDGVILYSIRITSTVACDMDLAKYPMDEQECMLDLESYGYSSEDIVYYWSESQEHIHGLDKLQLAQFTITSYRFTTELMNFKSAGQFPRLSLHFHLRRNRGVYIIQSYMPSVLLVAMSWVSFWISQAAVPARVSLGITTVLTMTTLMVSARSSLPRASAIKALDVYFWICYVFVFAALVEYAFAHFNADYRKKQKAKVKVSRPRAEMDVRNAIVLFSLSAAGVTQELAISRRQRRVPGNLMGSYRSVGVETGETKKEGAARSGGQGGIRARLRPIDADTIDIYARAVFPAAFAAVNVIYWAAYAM
Protocol: HEK 293 cells stably expressing tetracycline inducible α4β3N-Flag-δ or N-Flag-α4β3 GABAA receptors were cultured on glass coverslips and induced with tetracycline (2μg/ml) 24 hours before recordings. The coverslips were placed in a recording chamber and perfused with the bath solution. Cells were voltage clamped at -50 mV using the patch clamp amplifier (Axopatch 200A, Molecular Devices, Sunnyvale, CA). GABAA receptor-mediated chloride currents from HEK cells were recorded using the whole-cell configuration of patch-clamp electrophysiology. Data was acquired using Clampex version 8.1 (Molecular Devices), digitized at 10 kHz and filtered at 5 kHz. Current traces were analyzed using Clampfit version 9 (Molecular Devices). Series resistance ranged from 0.5–4 MΩ and cell capacitances from 9–18 pF. Membrane-capacitance and series-resistance were compensated electronically by > 85% with a lag of 10 μ seconds. Drugs were delivered via a multichannel superfusion pipette coupled to a piezoelectric elements that switched superfusion solution in < 1 millisecond. The recording chamber was continuously perfused with the bath solution in mM: 145 NaCl, 5 KCl, 10 HEPES, 2 CaCl2, and 1 MgCl2, 10 glucose, pH 7.4 (pH adjusted with N-methyl glucosamine). The pipette solution for whole-cell recordings contained in mM: 140 KCl, 10 HEPES, 1 EGTA and 2 MgCl2 at pH 7.3 (pH adjusted with KOH). Open pipette resistances ranged from 1.6–3 M. Errors are standard deviation from at least three replicas.
(§1) Statistical analysis for electrophysiology was done using GraphPad Prism 6. […] Analysis of the [^3H]muscimol binding was carried out using Igor Pro 7 (WaveMetrics). For Western blotting, the ratio of the signal intensity of individual antibodies for each sample was determined. Pooled (weighted) mean and standard deviation was determined for each receptor and p value determined by two-tailed unpaired Student’s t-test, using GraphPad QuickCalcs software.

[1] = biological target: T2, α4β3N-Flag-δ GABAA receptor reconstituted into CHAPS/lipid micelles (Homo sapiens, UniProt O14764+P28472+P48169); test: [3H]muscimol binding to purified receptor reconstituted into CHAPS/lipid micelles
T2 construct: made in house; DDM solubilization, anti-Flag beads, elution with Flag peptide into CHAPS/lipid
T2 sequence (P48169 36-554): as the sequence (P48169 36-554) above
T2 sequence (P28472 26-473 isoform P28472-2 limits assumed): as the sequence (P28472 26-473 isoform P28472-2 limits assumed) above
T2 sequence (O14764 25-452): as the sequence (O14764 25-452) above
Protocol: Cells with inducible expression of N-Flag-α4β3 and α4β3N-Flag-δ were induced with tetracycline (1 μg/ml final concentration, Life Technologies) and 5 mM sodium butyrate (Sigma-Aldrich, St. Louis, MO) for 24 hours and harvested in 10 ml per ten 15 cm–dishes of 10 mM HEPES, 1 mM EDTA (buffer A) freshly supplemented with protease inhibitors and 1 mM PMSF (final concentration) at 4°C with all subsequent purification procedures carried out at 4°C. Cells were homogenized with three cycles of 10 s each separated by 30 s intervals (Ultra Turrax T25, IKA Works, Wilmington, NC), followed by 20 strokes in Kontes-Duval glass tissue grinder. Homogenate was centrifuged at 43,000 x g for 30 min at 4°C and the pellet was resuspended in the buffer A and the entire procedure repeated. The resulting pellet was resuspended in the buffer A and a final homogenization carried out by aspiration with a 21-gauge needle and expulsed through 27-gauge needle. Concentration of total protein was assessed with the Pierce BCA protein assay kit (Pierce, Rockford, IL). Under constant stirring, the membrane fraction was solubilized over 30 min by dropwise addition of 30 mM DDM (Anatrace, Maumee, OH) in buffer B (50 mM Tris/HCl, 150 mM NaCl, 2 mM CaCl2, 5 mM KCl, 5 mM MgCl2, 4 mM EDTA, pH 7.5) and 10% glycerol, supplemented with protease inhibitors and 1 mM PMSF, with the volume adjusted to produce an effective protein concentration of 1 mg/ml. Following an additional 2 hours of solubilization, the solution was centrifuged at 45,000 x g for 30 min at 4°C. Insoluble material in the pellet was discarded and the supernatant was stored in liquid nitrogen overnight.
After washing once with buffer B, 2 ml of Flag beads (Sigma-Aldrich) were pre-treated overnight at 4°C on polypropylene columns (Qiagen, Hilden, Germany) with 1.5 ml of 10 mg/ml poly-d-Lysine hydrobromide with gentle agitation. On the following day, beads were washed three times with six 2–ml volumes of buffer B with 10% glycerol and incubated with solubilized membrane fractions with gentle agitation for 2 hours. Once transferred back into propylene columns, beads were washed once with wash buffer (17 mM CHAPS, 8.5 mM asolectin in buffer B with 10% glycerol, homogenized with glass grinder and sonicated for 10 min), equilibrated with the same buffer for 1 hour with agitation and washed again. Two more washes with elution buffer (5 mM CHAPS, 200 μM asolectin in buffer B with 10% glycerol, prepared as with wash buffer) were performed prior to elution of receptors by incubation with two x 2–ml of elution buffer supplemented with 0.15 mg/ml of Flag peptide (Sigma-Aldrich) for 2 hours with gentle rocking (elution 1). Second elution (elution 2) and another overnight incubation with 2–ml (elution 3) followed.
[…] […] […] […] The curves were fitted by nonlinear least squares with weighting by standard deviation. These yielded apparent dissociation constants of 9.2 ± 0.6 and 35 ± 12 nM, respectively. The Bmax of the membranes was 22.6 ± 0.5 pmol/mg and for reconstituted receptors in micelles was 19 ± 3 pmol/mL. The Hill coefficients differed little from one (1.07 ± 0.3 and 0.90 ± 0.05 respectively).

N–Flag–α4β3 receptors = biological target: T3, N–Flag–α4β3 receptors (Homo sapiens, UniProt P28472+P48169); test: Whole-cell patch-clamp of GABA-elicited currents in the control N-Flag-α4β3 cell line; assay type: cell-based; conditions: drug 10 μM co-applied for 4 s, 10 mM GABA, notch protocol
T3 construct: expressed in transfected cells
T3 sequence (P48169 36-554): as the sequence (P48169 36-554) above
T3 sequence (P28472 26-473 isoform P28472-2 limits assumed): as the sequence (P28472 26-473 isoform P28472-2 limits assumed) above
Protocol: HEK 293 cells stably expressing tetracycline inducible α4β3N-Flag-δ or N-Flag-α4β3 GABAA receptors were cultured on glass coverslips and induced with tetracycline (2μg/ml) 24 hours before recordings. The coverslips were placed in a recording chamber and perfused with the bath solution. Cells were voltage clamped at -50 mV using the patch clamp amplifier (Axopatch 200A, Molecular Devices, Sunnyvale, CA). GABAA receptor-mediated chloride currents from HEK cells were recorded using the whole-cell configuration of patch-clamp electrophysiology. Data was acquired using Clampex version 8.1 (Molecular Devices), digitized at 10 kHz and filtered at 5 kHz. Current traces were analyzed using Clampfit version 9 (Molecular Devices). Series resistance ranged from 0.5–4 MΩ and cell capacitances from 9–18 pF. Membrane-capacitance and series-resistance were compensated electronically by > 85% with a lag of 10 μ seconds. […]
Statistical analysis for electrophysiology was done using GraphPad Prism 6. […] For Western blotting, the ratio of the signal intensity of individual antibodies for each sample was determined. Pooled (weighted) mean and standard deviation was determined for each receptor and p value determined by two-tailed unpaired Student’s t-test, using GraphPad QuickCalcs software.

[2] = biological target: T4, α4β3N-Flag-δ GABAA receptor in native membranes (Homo sapiens, UniProt O14764+P28472+P48169); test: [3H]muscimol binding (filtration assay) to cell membranes
T4 construct: expressed in transfected cells
T4 sequence (P48169 36-554): as the sequence (P48169 36-554) above
T4 sequence (P28472 26-473 isoform P28472-2 limits assumed): as the sequence (P28472 26-473 isoform P28472-2 limits assumed) above
T4 sequence (O14764 25-452): as the sequence (O14764 25-452) above
Protocol: Radioactive ligand binding assays were carried out as previously described, with the exception that GABAAR binding sites were assayed at 250 nM [^3H]muscimol because of this receptor’s higher affinity.
as §1
Fig 3 The binding isotherm of the agonist [^3H]muscimol to the α4β3N-Flag-δ GABAA receptor in native membranes and reconstituted into CHAPS/lipid micelles. Binding curves of [^3H]muscimol to α4β3N–Flag–δ GABAΑRs, both, in cell membranes (pmol/mg membrane protein) and after purification and reconstitution into micelles of 5 mM CHAPS and 200 μM DOPC:DOPS:Cholesterol in mole ratio 52:15:33 (pmol/mL). […] The displaceable binding and its standard deviation was determined by subtracting these two values and propagating errors at each total muscimol concentration. The curves were fitted by nonlinear least squares with weighting by standard deviation. These yielded apparent dissociation constants of 9.2 ± 0.6 and 35 ± 12 nM, respectively. The Bmax of the membranes was 22.6 ± 0.5 pmol/mg and for reconstituted receptors in micelles was 19 ± 3 pmol/mL. The Hill coefficients differed little from one (1.07 ± 0.3 and 0.90 ± 0.05 respectively).

α4β3δ receptors = conditions: cited from earlier work
[3] = tested on: concatenated subunits β3-α1-δ/β3-α1; conditions: cited from earlier work
α4β3γ2 receptors = conditions: cited from earlier work
α1β3δ GABAARs = tested on: α1β3δ GABAARs; parameters: method as in PMID 27493204; conditions: cited from earlier work; for degree of desensitization: in 4 seconds
[4] = 2 nM [3H]muscimol, reconstituted
[5] = after 8.5 ms pulse of 100 μM GABA, two exponentials
[6] = linear fit of activation rate up to ~10 μM GABA
[7] = CHAPS/DOPC:DOPS:Cholesterol micelles

O=C(Nc1c(-c2cccs2)nc2ccccn12)c1ccc(Cl)cc1 [DS2]
enhancement of maximum GABA elicited currents (α4β3N–Flag–δ GABAAR; 10 mM GABA): 230 ± 63%
EC50 ([1]; 2 nM [3H]muscimol, CHAPS/PC:PS:Cholesterol micelles, read-out: EC50 of modulation of [3H]muscimol binding): 2300 ± 800 nM
Hill coefficient of modulation of [3H]muscimol binding [1, 4]: 1.2 ± 0.5
maximum modulation of [3H]muscimol binding [1, 4]: 132 ± 4%
enhancement of displaceable [3H]muscimol binding ([1]; DS2 30 μM, [3H]muscimol 2 nM, CHAPS/lipid micelles): 128 ± 11%
enhancement of maximum GABA elicited currents (N–Flag–α4β3 receptors): 12 ± 7%
Hill coefficient of modulation of [3H]muscimol binding ([2]; 2 nM [3H]muscimol, membranes): 0.9 ± 0.2
maximum modulation of [3H]muscimol binding ([2]; 2 nM [3H]muscimol, membranes): 139 ± 4%
EC50 ([2]; 2 nM [3H]muscimol, native membranes, read-out: EC50 of modulation of [3H]muscimol binding): 2000 ± 700 nM
enhancement of displaceable [3H]muscimol binding ([2]; DS2 30 μM, [3H]muscimol 2 nM, membranes): 142 ± 12%

NCCCC(=O)O [GABA, γ-aminobutyric acid]
activation time constant τ (α4β3N–Flag–δ GABAAR; 0.1 μM GABA): 165 ± 20 ms
activation time constant τ (α4β3N–Flag–δ GABAAR; 100 μM GABA): 6 ± 1 ms
fraction of available channels opened (efficacy of GABA) (α4β3N–Flag–δ GABAAR; 10 mM GABA, assumes 10 mM GABA + 10 μM etomidate opens 100% of channels): 17 ± 6%
desensitization time constant τ (α4β3N–Flag–δ GABAAR; 8-sec exposure to GABA 1–100 μM, all concentrations averaged): 2.6 ± 0.9 s
fraction of total current decay amplitude occupied by fastest phase (α4β3N–Flag–δ GABAAR; after 8.5 ms pulse of 100 μM GABA): 76 ± 12%
deactivation time constant, fastest phase (α4β3N–Flag–δ GABAAR; [5]): 175 ± 50 ms
deactivation time constant, slow phase (α4β3N–Flag–δ GABAAR; [5]): 1100 ± 440 ms
degree of desensitization (α4β3N–Flag–δ GABAAR; in 4 seconds at 100 μM GABA): ~ 70%
k+1 apparent forward GABA binding rate (α4β3N–Flag–δ GABAAR; [6]): 5.7 ± 0.2 x 10^6 s^–1M^–1
k–1 apparent reverse GABA binding rate (α4β3N–Flag–δ GABAAR; [6]): 5 ± 1 s^–1
Hill coefficient of GABA concentration-response curve (α4β3N–Flag–δ GABAAR; peak currents normalized to 10 mM GABA): 1.5 ± 0.24
desensitization time constant τ (α4β3δ receptors; 100 μM GABA): 4.8 s
rise time (α4β3δ receptors; 100 μM GABA): ~ 100 ms
deactivation time constant (α4β3δ receptors; lower time resolution perfusion system): ~ 400 ms
desensitization time constant ([3]; 1 mM GABA): 4.7 s
degree of desensitization ([3]; after 4 s at 1 mM GABA): ~ 40%
deactivation time constant [3]: ~ 50 ms
k+1 apparent forward GABA binding rate (α4β3γ2 receptors): 6 x 10^6 s^–1M^–1
10–90% rise times (α1β3δ GABAARs; 1 mM GABA, depending on the construct ratio): 4 to 22 ms
deactivation rate (time) (α1β3δ GABAARs; construct ratio 1:1:0.3): ~ 170 ms
degree of desensitization (α1β3δ GABAARs; much lower transfection ratios): 40–70%
degree of desensitization (α1β3δ GABAARs; transfection ratios similar to the authors'): little desensitization
deactivation rate (time) (α1β3δ GABAARs; varied with ratio of constructs transfected): 100 to 200 ms

NCc1cc(=O)[nH]o1 [[^3H]muscimol]
Kd ([1]; 5 mM CHAPS and 200 μM DOPC:DOPS:Cholesterol 52:15:33 micelles, read-out: apparent dissociation constant): 35 ± 12 nM
Bmax [1, 7]: 19 ± 3 pmol/mL
Hill coefficient of binding isotherm [1, 7]: 0.90 ± 0.05
Bmax (sites per mg of membrane protein) ([2]; cell membranes): 22.6 ± 0.5 pmol/mg
apparent affinity relative to α1β3γ2 GABAAR cell line ([2]; higher than in previously developed α1β3γ2 cell line (refs 13, 26)): 5 fold
EC50 ([2]; read-out: apparent dissociation constant (EC50 of binding isotherm)): 9.2 ± 0.6 nM

CCOC(=O)c1cncn1[C@H](C)c1ccccc1 [etomidate]
enhancement of maximum GABA elicited currents (α4β3N–Flag–δ GABAAR; 10 mM GABA): 540 ± 235%
enhancement of maximum GABA elicited currents (N–Flag–α4β3 receptors): 490 ± 84%

picrotoxin
fraction of spontaneously open receptors (picrotoxin-inhibited current) (α4β3N–Flag–δ GABAAR; 2 mM picrotoxin for 8 s, relative to current with 10 mM GABA + 10 μM etomidate): about 3.2 ± 0.6%
